Consider four compounds from patent US3939263A, “Methods of combatting insects and acarina using oxygenated derivatives of S-(tert-bulythio)methyl O,O-diethyl phosphorodithioate and phosphorothioate” (priority 1974, dated 1976).

One experiment deals with Tarnished Plant Bug. Nature of the experiment: Tarnished Plant Bug, treated cotton leaf, 2-day mortality. The format is in vivo, Lygus Lineolaris (Palisot de Beauvois). To be noted: Lygus lineolaris, 48 h, 2 days, read-out: % Kill, Tarnished Plant Bug. The method, then: Tarnished Plant Bug -- Lygus Lineolaris (Palisot de Beauvois)
A cotton plant with two true leaves expanded is dipped for 3 seconds with agitation in a 35/65% water/acetone mixture containing 100 ppm. of test compound and set in the hood to dry. One leaf is removed and placed in an 8-ounce waxed cup containing a wet 2-inch dental wick and 10 adult tarnished plant bugs, and a clear plastic lid is snapped on. After 2 days at 80°F., 50% r.h., mortality counts are made.

In another experiment the test system is Two-Spotted Spider Mite. Nature of the experiment: Two-Spotted Spider Mite, dipped infested lima bean plants. The format is in vivo, Tetranychus urticae (Koch). To be noted: Tetranychus urticae, read-out: % Kill, Two-Spotted Spider Mite. The method, then: Two-Spotted Spider Mite -- Tetranychus urticae (Koch)
Sieva lima bean plants, with primary leaves 3 to 4 inches long, are infested with about 100 adult mites per leaf 4 hours before use in this test, in order to allow egg-laying before treatment. The infested plants are dipped for 3 seconds with agitation into a 35/65% water/acetone mixture containing 1000 ppm. of test compound and the plants set in the hood to dry. After 2 days at 80°F., and 50% r.h., the adult mite mortality is estimated on one leaf under a 10X stereoscopic microscope. The other leaf is left on the plant an additional 5 days and then examined at 10X power to estimate the kill of eggs and of newly hatched nymphs, giving a measure of ovicidal and residual action, respectively.

In experiment [1] the test system is Southern Armyworm. In words: Southern Armyworm, dipped lima bean leaf. The experiment is classed as in vivo, Spodoptera eridania (Cramer). The conditions noted are these: Spodoptera eridania, 48 h, 2 days, read-out: % Kill, Southern Armyworm. The method, then:
Southern Armyworm -- Spodoptera eridania (Cramer)
A Sieva lima bean plant with just the primary leaves expanded to 3 to 4 inches is dipped for 3 seconds with agitation in a 35/65% water/acetone mixture containing 1000 ppm. of test compound and set in the hood to dry. Following this, one leaf is placed in a 4-inch petri dish which has a moist filter paper in the bottom and ten third-instar armyworm larvae about three-eighths inch long. The dish is covered and held at 80°F., and 50% r.h. After 2 days, mortality counts and estimates of the amount of feeding are made. Compounds showing partial kill and/or inhibition of feeding are held for an extra day for further observations.

The next experiment has as its system Mexican Bean Beetle. Nature of the experiment: Mexican Bean Beetle, dipped lima bean leaves. The experiment is classed as in vivo, Epilachna varivestis Mulsant. The conditions noted are these: Epilachna varivestis, read-out: % Kill, Mexican Bean Beetle. From the text:
Mexican Bean Beetle -- Epilachna varivestis Mulsant
Sieva lima bean plants (two per pot) with primary leaves 3 to 4 inches long, are dipped in a 35/65% water/acetone mixture containing 100 ppm. of test compound and set in the hood to dry. One leaf is removed from a plant and placed in a 4-inch petri dish containing a moist filter paper on the bottom and 10 last-instar larvae (13 days from hatching). The day after treatment, another leaf is removed from the plant and fed to the larvae after removing the remains of the original leaf. Two days after treatment, the third leaf is fed to the larvae, this usually being the last needed. The fourth leaf is used on the third day after treatment if the larvae have not finished feeding. The test is now set aside and held until adults have emerged, usually in about nine days after treatment began. After emergence is complete, each dish is examined for dead larvae, pupae or adults; deformed pupae or adults; larval-pupal intermediates or pupal-adult intermediates; or any other interference with normal molting, transformation and emergence of pupae or adults.

In the next experiment the test system is Southern Corn Rootworm. In words: Soil Insecticide test, Southern Corn Rootworm. The format is in vivo, Diabrotica undecimpunctata howardi Barber. To be noted: 144 h, 6 days, read-out: % Kill, Soil Insecticide, Southern Corn Rootworm; for mortality at 1 ppm: 1 ppm in soil; for mortality at 10 ppm: 10 ppm in soil; for mortality at 100 ppm: 100 ppm in soil. The method, then: Southern Corn Rootworm -- Diabrotica undecimpunctata howardi Barber
[…] Twelve and one-half milliliters of Littleton silt loam soil and 1 milliliter of millet seed (food for larvae) are added, the jars capped and the contents thoroughly mixed about 2 minutes on a rotary tumbler. Each jar then receives 5 ml. of tap water and ten southern corn rootworm larvae (Diabrotica undecimpunctata howardi Barber) 6 to 8 days old. The jars are loosely capped and placed in the holding room at 26.7°C. and 60% r.h. with constant light. Mortality counts are made after 6 days. Corrected percent mortality data is recorded on standard forms.

The test system of experiment [2] is Southern Armyworm. Nature of the experiment: Soil Systemic Insecticide test on corn, Southern Armyworm. The experiment is classed as in vivo, Spodoptera eridania Cramer. To be noted: Spodoptera eridania, 48 h; 100 ppm in soil; corn foliage after three weeks; 2 days; read-out: % Kill, Systemic Insecticide, Southern Armyworm. As to the method:
Soil Systemic Insecticide Tests
Corn and cotton seed (three seeds each) are planted in treated soil (containing about 100 ppm. of the compound). Thirty milliliters of treated soil are placed in a peat container 5 × 5 × 5.5 cm., and three seeds each of corn and cotton planted. The containers are filled with an additional 30 ml. of treated soil. The treatments are removed to the greenhouse maintained about 26°C. without supplementary light. Water is supplied as needed. After three weeks, foliage of the corn is clipped and placed in glass petri dishes (90 mm. × 10 mm.) with moist filter (9 cm. Whatman No. 1) paper and ten third-instar southern armyworm (Spodoptera eridania Cramer) larvae about 8 mm. long. The dishes are covered and placed in the holding room with constant light at 26.7°C. and 60% r.h. for 2 days, when mortality counts are made.

A further experiment has as its system Bean Aphid. Nature of the experiment: Bean Aphid, sprayed nasturtium plants. The experiment is classed as in vivo, Aphis fabae Scopoli. To be noted: Aphis fabae, 24 h, one day, read-out: % Kill, Bean Aphid. The method, then: Bean Aphid -- Aphis fabae Scopoli
Two-inch fiber pots, each containing a nasturtium plant 2 inches high and infested with 100 to 150 aphids 2 days earlier are placed on a 4 […] an Atomizer at 20 psi. air pressure. The spray tip is held about 6 inches from the plants and the spray directed so as to give complete coverage of the aphids and the plants. The sprayed plants are laid on their sides on white enamel trays. Mortality estimates are made after one day at 70°F., 50% r.h.

Experiment [3] concerns Boophilus microplus ticks. Nature of the experiment: Tick larvae, simulated spray in pipette. The format is in vivo. The conditions noted are these: Rhipicephalus microplus, 48 hours, read-out: % Kill, Ticks. The method, then:
Ticks -- Boophilus microplus
In these tests, 20 larvae are enclosed in a pipette sealed at one end with a gauze material. A 10% acetone/water solution with the drug in it is then sucked through the pipette with a vacuum hose, thus simulating a spray system. The ticks are then held for 48 hours and mortality is determined.

Turning to `CCOP(=O)(OCC)SCS(=O)(=O)C(C)(C)C` [O,O-diethyl S-(tert-butylsulfonyl)methyl Phosphorothioate], the mortality at 100 ppm turned out to be 100% with Tarnished Plant Bug; 100% in the experiment on Two-Spotted Spider Mite; 100% with Southern Armyworm [1]; 90% with Mexican Bean Beetle; 100% in the experiment with Southern Corn Rootworm; 100% in the experiment with Southern Armyworm [2]. Also, the mortality at 100 ppm in the experiment on Bean Aphid turned out to be 100%. For the same compound, the mortality at 1000 ppm in the experiment with Two-Spotted Spider Mite and with Southern Armyworm [1] was 100% each time. Moreover, the mortality at 10 ppm in the experiment on Mexican Bean Beetle came to 70%; in the experiment with Southern Corn Rootworm it was 100%; in the experiment with Bean Aphid, 100%. Further, the mortality at 1 ppm worked out at 0% in the experiment with Southern Corn Rootworm and 100% in the experiment with Bean Aphid. Besides, the mortality at 33 ppm in experiment [3] is 0%.
Turning to `CCOP(=S)(OCC)SC[S+]([O-])C(C)(C)C` (stereo not drawn) [O,O-diethyl S-(tert-butylsulfinyl)methyl phosphorodithioate, reference compound], the mortality at 100 ppm worked out at 100% in the experiment on Tarnished Plant Bug; 100% with Two-Spotted Spider Mite; 70% with Southern Armyworm [1]; 90% in the experiment with Mexican Bean Beetle; 100% with Southern Corn Rootworm; 100% in the experiment on Southern Armyworm [2]. Besides, the mortality at 100 ppm with Bean Aphid stood at 100%. Besides, the mortality at 1000 ppm in the experiment on Two-Spotted Spider Mite and with Southern Armyworm [1] was 100% in each case. Besides, the mortality at 10 ppm was found to be 80% in the experiment with Mexican Bean Beetle, 100% with Southern Corn Rootworm and 100% in the experiment on Bean Aphid. Moreover, the mortality at 1 ppm with Southern Corn Rootworm was found to be 95%; with Bean Aphid it was 100%. In addition, the mortality at 33 ppm in experiment [3] is 0%.
Take `CCOP(=S)(OCC)SCS(=O)(=O)C(C)(C)C` [O,O-diethyl S-(tert-butylsulfonyl)methyl Phosphorodithioate]: the mortality at 100 ppm with Tarnished Plant Bug amounted to 100%; in the experiment with Two-Spotted Spider Mite, 100%; with Southern Armyworm [1] it was 100%; with Mexican Bean Beetle it was 100%; in the experiment with Southern Corn Rootworm, 100%; in the experiment on Southern Armyworm [2], 0%. Further, the mortality at 100 ppm in the experiment with Bean Aphid is 100%. The mortality at 1000 ppm in the experiment on Two-Spotted Spider Mite and with Southern Armyworm [1] was 100% in each case. Besides, the mortality at 1 ppm in the experiment with Southern Corn Rootworm and in the experiment with Bean Aphid was 100% throughout. For the same compound, the mortality at 10 ppm with Southern Corn Rootworm and in the experiment with Bean Aphid was 100% throughout.
Consider `CCOP(=O)(OCC)SC[S+]([O-])C(C)(C)C` (stereo not drawn) [O,O-diethyl S-(tert-butylsulfinyl)methyl Phosphorothioate], for which the mortality at 100 ppm in the experiment on Tarnished Plant Bug, in the experiment with Two-Spotted Spider Mite, in the experiment on Southern Armyworm [1], in the experiment with Mexican Bean Beetle, with Southern Corn Rootworm and in the experiment with Southern Armyworm [2] was 100% throughout. The mortality at 100 ppm (with Bean Aphid; in experiment [3] (100 ppm)) was 100% in each case. For the same compound, the mortality at 1000 ppm in the experiment with Two-Spotted Spider Mite and with Southern Armyworm [1] was 100% each time. The mortality at 10 ppm with Mexican Bean Beetle, in the experiment on Southern Corn Rootworm and in the experiment with Bean Aphid was 100% in each case. The mortality at 1 ppm in the experiment with Southern Corn Rootworm was 61%; in the experiment with Bean Aphid, 100%.
